Laboratory results from US8034936B2, “Spirocyclic cyclohexane compounds useful to treat substance dependency” (Gruenenthal GmbH, priority 2005, dated 2011).

How the values were obtained:
HERG channel = HERG channel (Homo sapiens, UniProt Q12809); conditions: read-out: IC50, HERG channel; Katchman et al. 2002; cited from earlier work
human μ-opiate receptor = human μ-opiate receptor (Homo sapiens, UniProt P35372); experiment: μ-opiate receptor binding, [3H]-naloxone displacement, CHO-K1 membrane preparation; conditions: No. 1-49
mice = conditions: mouse, in vivo, ip, 30 mg/kg

Sequence of HERG channel (Q12809 whole entry): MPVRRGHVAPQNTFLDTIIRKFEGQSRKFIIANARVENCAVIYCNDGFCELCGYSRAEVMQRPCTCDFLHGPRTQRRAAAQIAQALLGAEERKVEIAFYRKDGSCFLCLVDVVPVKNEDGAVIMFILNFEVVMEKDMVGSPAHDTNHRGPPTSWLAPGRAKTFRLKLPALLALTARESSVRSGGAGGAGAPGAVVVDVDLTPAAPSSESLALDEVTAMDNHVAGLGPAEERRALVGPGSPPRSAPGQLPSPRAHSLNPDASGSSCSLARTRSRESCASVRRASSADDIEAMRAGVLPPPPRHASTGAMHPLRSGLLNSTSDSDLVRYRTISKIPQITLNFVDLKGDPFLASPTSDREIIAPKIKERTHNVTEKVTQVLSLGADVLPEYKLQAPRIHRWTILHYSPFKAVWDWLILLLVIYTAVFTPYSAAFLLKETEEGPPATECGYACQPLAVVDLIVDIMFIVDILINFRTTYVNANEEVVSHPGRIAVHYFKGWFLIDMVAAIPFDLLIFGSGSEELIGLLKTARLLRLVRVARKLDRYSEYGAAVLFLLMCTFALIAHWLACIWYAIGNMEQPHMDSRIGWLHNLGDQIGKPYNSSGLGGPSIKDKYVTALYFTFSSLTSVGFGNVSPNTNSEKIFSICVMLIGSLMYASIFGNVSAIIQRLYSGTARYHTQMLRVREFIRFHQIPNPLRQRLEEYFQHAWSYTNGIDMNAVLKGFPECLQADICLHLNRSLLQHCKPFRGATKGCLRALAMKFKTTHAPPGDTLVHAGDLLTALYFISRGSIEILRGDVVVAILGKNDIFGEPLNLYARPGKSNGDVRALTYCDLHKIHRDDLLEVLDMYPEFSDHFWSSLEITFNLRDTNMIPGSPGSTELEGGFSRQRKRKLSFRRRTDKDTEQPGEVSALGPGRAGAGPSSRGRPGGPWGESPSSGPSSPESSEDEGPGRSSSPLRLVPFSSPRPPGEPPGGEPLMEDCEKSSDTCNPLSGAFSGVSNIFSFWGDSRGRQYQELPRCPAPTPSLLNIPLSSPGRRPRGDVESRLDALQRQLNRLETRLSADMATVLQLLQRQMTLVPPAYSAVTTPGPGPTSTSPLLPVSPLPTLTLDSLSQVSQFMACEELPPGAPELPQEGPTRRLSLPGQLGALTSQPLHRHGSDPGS
Sequence of human μ-opiate receptor (P35372 whole entry): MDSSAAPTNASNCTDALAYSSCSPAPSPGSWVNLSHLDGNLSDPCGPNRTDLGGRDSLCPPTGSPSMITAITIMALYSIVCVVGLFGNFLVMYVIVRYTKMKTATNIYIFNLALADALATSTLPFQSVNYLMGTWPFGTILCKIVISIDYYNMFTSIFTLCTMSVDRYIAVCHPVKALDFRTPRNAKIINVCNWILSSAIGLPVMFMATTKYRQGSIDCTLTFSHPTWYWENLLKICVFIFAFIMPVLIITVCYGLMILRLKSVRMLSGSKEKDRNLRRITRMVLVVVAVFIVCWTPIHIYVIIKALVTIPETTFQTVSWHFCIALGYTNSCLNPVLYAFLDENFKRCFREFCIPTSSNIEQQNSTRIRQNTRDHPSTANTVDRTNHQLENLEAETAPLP

CCC(=O)C(CC(C)N(C)C)(c1ccccc1)c1ccccc1 (racemic) [methadone]
IC50 (HERG channel): 9.8 µM

CN(C)C1(c2ccccc2)CCC2(CC1)NCCc1c2oc2ccccc12 (stereo not drawn) [Example 12, 1,1-(3-dimethylamino-3-phenylpentamethylene)-1,3,4,9-tetrahydro-2-aza-9-oxafluorene]
Ki (human μ-opiate receptor): 0.17 µM

CCC(=O)C(C[C@@H](C)N(C)C)(c1ccccc1)c1ccccc1 [Levomethadone, levomethadone]
withdrawal jumping triggered by naloxone (mice): induced withdrawal jumping
